# Test results published in paper PMC13014258 (JACS Au, 2026).
# Tested on: CTSB
# Test: CTSB inhibitor study, CTSB channel fluorescence of the probes in cells
# Format: cell-based
# Conditions: HeLa cells, CA-074 500 nM 15 min, n = 30
structure (smiles),measurement,setting,value
CCCNC(=O)[C@H]1O[C@@H]1C(=O)N[C@H](C(=O)N1CCC[C@H]1C(=O)O)[C@@H](C)CC [CTSB inhibitor],CTSB (blue) channel intensities of MSS2 and MSS3 in inhibitor-treated cells at resting state,then MSS2/MSS3 10 μM 5 min,significantly reduced
same,CTSB (blue) channel intensities of MSS4 and MSS5 in inhibitor-treated cells at resting state,then MSS4/MSS5 10 μM 5 min,significantly reduced
